“And” between values parts separate entries of the source, which are not always exact repeats. Equal entries are not always repeated.
Key:
[1] = test system: TPA-stimulated epidermal hyperplasia in mouse skin; assay: TPA-stimulated epidermal hyperplasia in mouse skin, subcutaneous fluasterone; assay type: in vivo, mice; conditions: subcutaneous injection
Description: In dose-response experiments the anti-hyperplastic efficacy of fluasterone in TPA-treated mouse epidermis to determine bioavailability following different routes of administration was measured. Mice were treated with a single dose of fluasterone (either orally, subcutaneously, or transdermally) followed by a single application of TPA to the shaved back one hour latter. In case of transdermal administration, fluasterone is applied in a topical formulation to the shaved abdomen to allow for systemic absorption to the back of the animal. Twenty hours after TPA application, the mice are injected with 60 μCi of [3H] thymidine, sacrificed 20 minutes later, and a 2×2 cm2 of skin from the shaved back is excised and processed for the determination of the amount of [3H] thymidine incorporated per unit of epidermal DNA. (Hennings et. al., Cancer Res. 28:543-552, 1968).

[2] = test system: TPA-stimulated epidermal DNA synthesis in mouse epidermis; assay: TPA-induced epidermal DNA synthesis in mouse epidermis, transdermal fluasterone; assay type: in vivo, CD-1 mice; conditions: 20 h; for μg DNA/0.2 mL / cpm / corrected cpm / μg DNA/0.2: single mice; for cpm/μg DNA: single mice and group mean
[3] = Cremophor EL solution, 1.9 mg/kg transdermal (abdomen) 1 h before 2 μg TPA (back), 1.9 mg/kg
[4] = Cremophor EL solution, 5 mg/kg transdermal (abdomen) 1 h before 2 μg TPA (back), 5 mg/kg
[5] = Cremophor EL:ethanol (50:50 v/v) solution, 1.9 mg/kg transdermal (abdomen) 1 h before 2 μg TPA (back), 1.9 mg/kg
[6] = Cremophor EL:ethanol (50:50 v/v) solution, 2.5 mg/kg transdermal (abdomen) 1 h before 2 μg TPA (back), 2.5 mg/kg
[7] = Cremophor EL:ethanol (50:50 v/v) solution, 5 mg/kg transdermal (abdomen) 1 h before 2 μg TPA (back), 5 mg/kg
[8] = Tween 80:ethanol (50:50 v/v) solution, 1.9 mg/kg transdermal (abdomen) 1 h before 2 μg TPA (back), 1.9 mg/kg
[9] = carbitol solution, 1.25 mg/kg transdermal (abdomen) 1 h before 2 μg TPA (back), 1.25 mg/kg
[10] = carbitol solution, 2.5 mg/kg transdermal (abdomen) 1 h before 2 μg TPA (back), 2.5 mg/kg

C[C@]12CCCCC1=CC[C@@H]1[C@@H]2CC[C@]2(C)C(=O)[C@H](F)C[C@@H]12 [Fluasterone, 16α-fluoro-5-androsten-17-one]
lowest effective dose which abolishes TPA-stimulated epidermal hyperplasia [1]: 2.5 to 5 mg/kg
μg DNA/0.2 mL ([2]; Cremophor EL solution, 1.25 mg/kg transdermal (abdomen) 1 h before 2 μg TPA (back), 1.25 mg/kg): 28.1 μg DNA/0.2 mL and 14.9 μg DNA/0.2 mL
cpm/μg DNA [2, 3]: 161.0 cpm/μg DNA and 270.3 cpm/μg DNA and 215.7 ± 77.3 cpm/μg DNA
μg DNA/0.2 mL [2, 3]: 15.4 μg DNA/0.2 mL and 20.1 μg DNA/0.2 mL
μg DNA/0.2 mL ([2]; Cremophor EL solution, 2.5 mg/kg transdermal (abdomen) 1 h before 2 μg TPA (back), 2.5 mg/kg): 8.6 μg DNA/0.2 mL and 10.1 μg DNA/0.2 mL
cpm [2, 4]: 1,015 cpm and 1,686 cpm
μg DNA/0.2 mL [2, 4]: 8.4 μg DNA/0.2 mL and 11.2 μg DNA/0.2 mL
cpm/μg DNA [2, 5]: 207.8 cpm/μg DNA and 160.4 cpm/μg DNA
corrected cpm [2, 5]: 5,965 cpm and 4,025 cpm
cpm [2, 5]: 5,990 cpm and 4,050 cpm
μg DNA/0.2 [2, 5]: 28.7 μg DNA/0.2 and 25.1 μg DNA/0.2
cpm/μg DNA [2, 6]: 423.2 cpm/μg DNA and 410.7 cpm/μg DNA and 462.8 cpm/μg DNA
corrected cpm [2, 6]: 7,068 cpm and 6,243 cpm and 6,341 cpm
cpm [2, 6]: 7,093 cpm and 6,268 cpm and 6,366 cpm
μg DNA/0.2 [2, 6]: 16.7 μg DNA/0.2 and 15.2 μg DNA/0.2 and 13.7 μg DNA/0.2
cpm/μg DNA [2, 7]: 125.1 cpm/μg DNA and 222.9 cpm/μg DNA and 206.4 cpm/μg DNA
μg DNA/0.2 [2, 7]: 15.0 μg DNA/0.2 and 14.0 μg DNA/0.2 and 13.3 μg DNA/0.2
cpm/μg DNA [2, 8]: 216.3 cpm/μg DNA and 189.8 cpm/μg DNA
corrected cpm [2, 8]: 3,114 cpm and 3,150 cpm
cpm [2, 8]: 3,139 cpm and 3,175 cpm
μg DNA/0.2 [2, 8]: 14.4 μg DNA/0.2 and 16.6 μg DNA/0.2
cpm/μg DNA [2, 9]: 270.1 cpm/μg DNA and 341.3 cpm/μg DNA and 287.9 ± 25.2 cpm/μg DNA
corrected cpm [2, 9]: 6,051 cpm and 10,170 cpm
cpm [2, 9]: 6,086 cpm and 10,205 cpm
μg DNA/0.2 mL [2, 9]: 22.4 μg DNA/0.2 mL and 29.8 μg DNA/0.2 mL
μg DNA/0.2 mL ([2]; carbitol solution, 1.9 mg/kg transdermal (abdomen) 1 h before 2 μg TPA (back), 1.9 mg/kg): 18.4 μg DNA/0.2 mL and 11.8 μg DNA/0.2 mL
cpm/μg DNA [2, 10]: 64.8 cpm/μg DNA and 73.8 cpm/μg DNA and 69.3 ± 6.3 cpm/μg DNA
corrected cpm [2, 10]: 616 cpm and 649 cpm
cpm [2, 10]: 651 cpm and 684 cpm
μg DNA/0.2 mL [2, 10]: 9.5 μg DNA/0.2 mL and 8.8 μg DNA/0.2 mL
corrected cpm ([2]; carbitol solution, 5 mg/kg transdermal (abdomen) 1 h before 2 μg TPA (back), 5 mg/kg): 5,338 cpm and 5,045 cpm
